pKi: −log10 of the molar value. Where two headings read alike, the source gives them in different places. Each block holds one molecule with its values, some of them ahead of it.
Legend:
GR [1] = target: T1, GR (Homo sapiens, UniProt P04150); experiment: 3H-dexamethasone displacement assay on cells (Ki); assay type: binding
T1 construct: evaluated using ^3H-ligand displacement assays on cells; endogenous in cells; host or cells: DU145
T1 sequence (P04150 1-777): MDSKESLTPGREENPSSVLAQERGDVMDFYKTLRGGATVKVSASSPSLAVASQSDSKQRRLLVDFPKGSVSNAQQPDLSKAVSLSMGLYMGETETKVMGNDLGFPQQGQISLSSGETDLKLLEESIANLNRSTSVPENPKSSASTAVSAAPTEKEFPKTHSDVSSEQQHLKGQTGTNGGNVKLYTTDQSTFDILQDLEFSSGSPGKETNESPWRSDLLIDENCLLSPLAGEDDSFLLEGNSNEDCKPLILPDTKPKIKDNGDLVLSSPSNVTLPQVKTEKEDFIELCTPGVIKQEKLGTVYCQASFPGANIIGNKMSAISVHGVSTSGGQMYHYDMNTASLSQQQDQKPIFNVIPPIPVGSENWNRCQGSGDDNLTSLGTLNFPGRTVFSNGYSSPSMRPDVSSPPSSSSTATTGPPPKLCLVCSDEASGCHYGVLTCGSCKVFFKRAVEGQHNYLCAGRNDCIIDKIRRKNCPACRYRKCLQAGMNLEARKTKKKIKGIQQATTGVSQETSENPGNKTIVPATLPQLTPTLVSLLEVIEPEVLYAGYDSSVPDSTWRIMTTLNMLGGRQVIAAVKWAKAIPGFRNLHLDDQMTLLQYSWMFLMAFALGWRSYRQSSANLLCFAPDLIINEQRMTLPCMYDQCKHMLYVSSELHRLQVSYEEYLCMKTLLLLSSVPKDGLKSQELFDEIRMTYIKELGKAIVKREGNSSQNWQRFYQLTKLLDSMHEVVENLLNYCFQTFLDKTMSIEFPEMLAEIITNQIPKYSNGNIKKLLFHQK
Procedure: Statistics. All statistical analysis was performed using PRISM v8.0 software. An unpaired, two-tailed Student's t test was used to determine statistically significant differences in the data. P<0.05 was reported as statistically significant. For the determination of Ki, the data were fit with a one site nonlinear regression model.
The racemic mixture of the phenol 27 was resolved using a chiral Lux® 5p Cellulose-1 stationary phase with an isocratic mobile phase of 30% water, 70% acetonitrile, and 0.1% trifluoroacetic acid (v v) (FIG. 8A). Several milligrams of one peak were isolated and the compound was recrystallized in hexanes.
The Ki were calculated using a one site Ki fit nonlinear regression with Prism v8.0. The data are representative of two independent assays.

GR [2] = target: T2, GR (Mus musculus, UniProt P06537); experiment: 11C radiotracer biodistribution with dexamethasone or Dex-CD blocking; assay type: in vivo; conditions: for radiotracer uptake, Adrenal / radiotracer uptake, Blood / radiotracer uptake, Bone / radiotracer uptake, Brain / radiotracer uptake, Brown Fat / radiotracer uptake, Heart / radiotracer uptake, Kidney / radiotracer uptake, Lg. Int. / radiotracer uptake, Liver / radiotracer uptake, Lung / radiotracer uptake, Muscle / radiotracer uptake, Pancreas / radiotracer uptake, Sm. Int. / radiotracer uptake, Spleen / radiotracer uptake, Stomach: 20 min after injection
T2 construct: from tissue; host or cells: tissues of C57BL6/J mice (intact or adrenalectomized), in vivo
T2 sequence (P06537 1-792): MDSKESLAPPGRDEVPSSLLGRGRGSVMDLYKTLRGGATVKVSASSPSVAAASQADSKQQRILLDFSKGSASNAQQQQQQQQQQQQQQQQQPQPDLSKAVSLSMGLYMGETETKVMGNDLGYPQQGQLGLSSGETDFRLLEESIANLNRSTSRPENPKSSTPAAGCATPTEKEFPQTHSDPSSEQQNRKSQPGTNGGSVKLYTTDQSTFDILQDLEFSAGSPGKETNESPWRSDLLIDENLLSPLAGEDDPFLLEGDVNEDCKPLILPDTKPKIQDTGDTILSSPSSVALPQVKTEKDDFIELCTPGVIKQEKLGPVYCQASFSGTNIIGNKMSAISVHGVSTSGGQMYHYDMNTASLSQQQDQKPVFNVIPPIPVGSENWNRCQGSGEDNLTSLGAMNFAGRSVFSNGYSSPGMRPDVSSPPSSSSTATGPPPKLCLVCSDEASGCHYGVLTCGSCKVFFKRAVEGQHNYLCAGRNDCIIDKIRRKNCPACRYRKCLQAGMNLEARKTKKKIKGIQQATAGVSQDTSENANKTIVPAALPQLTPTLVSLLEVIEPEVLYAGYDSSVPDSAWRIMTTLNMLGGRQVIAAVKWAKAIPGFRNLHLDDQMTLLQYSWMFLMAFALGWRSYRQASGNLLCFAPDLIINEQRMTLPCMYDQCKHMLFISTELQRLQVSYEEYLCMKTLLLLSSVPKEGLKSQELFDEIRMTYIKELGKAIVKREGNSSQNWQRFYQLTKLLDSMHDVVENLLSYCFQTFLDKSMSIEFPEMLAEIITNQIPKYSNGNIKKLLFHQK
Procedure: Animal Studies. All animal experiments were performed under the approval of the Institutional Animal Care and Use Committee (IACUC) at UCSF. C57BL6/J mice (4-6 weeks) were purchased from Charles River. All the mice were housed in a dedicated vivarium with free access to food and water. […] Adrenalectomized mice were purchased from Charles River and provided drinking water supplemented with NaCl (aq) per instructions until the time of the tracer biodistribution study.
Biodistribution Studies. Mice were euthanized after radiotracer (7.4-18.5 MBq in 100-150 μL) injection with CO2 (g) asphyxiation and dissected at dedicated time points post injection. The blood and tissues were collected, washed, dried, and weighed. The activity of each tissue was measured with a gamma counter. All data was decay corrected. PRISM software was used to express a percentage (% ID/g) of the injected dose per gram of tissue.
The P value indicates the result of an unpaired, two-tailed Student's t test between the respective treatment group and vehicle (n=5/group).
Table 10 summarizes biodistribution data collected 20 minutes after injection of ^11C-YJH02 among two treatment arms receiving vehicle or one intraperitoneal injection of the water-soluble dexamethasone-cyclodextrin complex at 10 mg/kg one hour prior to radiotracer administration. The P value indicates the result of an unpaired, two-tailed Student's t test between the respective treatment group and vehicle (n=5/group).

[3] = DU145 cells, read-out: affinity (3H-dexamethasone displacement curves)
[4] = GR in cells, one site Ki fit, read-out: Ki
[5] = mice given Dex-CD 10 mg/kg intraperitoneal one hour prior to radiotracer

SMILES: COc1cccc2c1-c1ccc3c(c1[C@H](Cc1ccc(F)cc1)O2)C(C)=CC(C)(C)N3 [(S)-YJH08]
pKi (GR [1]; [3]): > 8.30
pKi (GR [1]; [4]): 8.69

SMILES: COc1cccc2c1-c1ccc3c(c1[C@@H](Cc1ccc(F)cc1)O2)C(C)=CC(C)(C)N3 [(R)-YJH08]
pKi (GR [1]; [3]): > 8.30
pKi (GR [1]; [4]): 8.42

SMILES: COc1cccc2c1-c1ccc3c(c1C(OC)O2)C(C)=CC(C)(C)N3 (stereo not drawn) [YJH04, 5,10-Dimethoxy-2,5-dihydro-2,2,4-trimethyl-1H-[1]benzopyrano[3,4-f]quinolone]
pKi (GR [1]; [4]): 8.21

SMILES: COc1cccc2c1-c1ccc3c(c1C(O)O2)C(C)=CC(C)(C)N3 (stereo not drawn) [YJH03]
pKi (GR [1]; [4]): 8.19

More lines, now with the values ahead:

pKi (GR [1]; [4]): 8.57
SMILES: COc1cccc2oc(=O)c3c4c(ccc3c12)NC(C)(C)C=C4C [YJH02, 2,5-Dihydro-10-methoxy-5-oxo-2,2,4-trimethyl-1H-[1]benzopyrano [3,4-f]quinoline]

radiotracer uptake, Adrenal (GR [2]; [5]): 2.37 ± 1.0 % ID/g
radiotracer uptake, Blood (GR [2]; [5]): 1.07 ± 0.1 % ID/g
radiotracer uptake, Bone (GR [2]; [5]): 0.76 ± 0.1 % ID/g
radiotracer uptake, Brain (GR [2]; [5]): 0.34 ± 0.07 % ID/g
radiotracer uptake, Brown Fat (GR [2]; [5]): 3.64 ± 1.0 % ID/g
radiotracer uptake, Heart (GR [2]; [5]): 0.97 ± 0.1 % ID/g
radiotracer uptake, Kidney (GR [2]; [5]): 1.28 ± 0.1 % ID/g
radiotracer uptake, Lg. Int. (GR [2]; [5]): 1.06 ± 0.3 % ID/g
radiotracer uptake, Liver (GR [2]; [5]): 3.75 ± 0.8 % ID/g
radiotracer uptake, Lung (GR [2]; [5]): 1.71 ± 0.2 % ID/g
radiotracer uptake, Muscle (GR [2]; [5]): 0.57 ± 0.1 % ID/g
radiotracer uptake, Pancreas (GR [2]; [5]): 1.76 ± 0.4 % ID/g
radiotracer uptake, Sm. Int. (GR [2]; [5]): 5.80 ± 2.5 % ID/g
radiotracer uptake, Spleen (GR [2]; [5]): 0.76 ± 0.1 % ID/g
radiotracer uptake, Stomach (GR [2]; [5]): 1.81 ± 0.3 % ID/g
radiotracer uptake, Adrenal (GR [2]; mice given vehicle): 6.17 ± 0.7 % ID/g
radiotracer uptake, Blood (GR [2]; mice given vehicle): 1.24 ± 0.1 % ID/g
radiotracer uptake, Bone (GR [2]; mice given vehicle): 0.70 ± 0.1 % ID/g
radiotracer uptake, Brain (GR [2]; mice given vehicle): 0.66 ± 0.1 % ID/g
radiotracer uptake, Brown Fat (GR [2]; mice given vehicle): 4.65 ± 1.1 % ID/g
radiotracer uptake, Heart (GR [2]; mice given vehicle): 1.15 ± 0.2 % ID/g
radiotracer uptake, Kidney (GR [2]; mice given vehicle): 1.38 ± 0.4 % ID/g
radiotracer uptake, Lg. Int. (GR [2]; mice given vehicle): 1.63 ± 0.4 % ID/g
radiotracer uptake, Liver (GR [2]; mice given vehicle): 6.78 ± 1.1 % ID/g
radiotracer uptake, Lung (GR [2]; mice given vehicle): 2.07 ± 0.4 % ID/g
radiotracer uptake, Muscle (GR [2]; mice given vehicle): 0.74 ± 0.1 % ID/g
radiotracer uptake, Pancreas (GR [2]; mice given vehicle): 2.70 ± 0.4 % ID/g
radiotracer uptake, Sm. Int. (GR [2]; mice given vehicle): 10.88 ± 2.7 % ID/g
radiotracer uptake, Spleen (GR [2]; mice given vehicle): 1.55 ± 0.1 % ID/g
radiotracer uptake, Stomach (GR [2]; mice given vehicle): 2.51 ± 0.4 % ID/g
brain uptake relative to (±)-^11C-YJH08 (GR [2]; normal mice, 20 min post injection): approximately three fold lower
SMILES: COc1cccc2oc(=O)c3c4c(ccc3c12)NC(C)(C)C=C4C [^11C-YJH02]

pKi (GR [1]; [4]): 8.63
SMILES: CC1=CC(C)(C)Nc2ccc3c(c21)c(=O)oc1cccc(O)c13 [YJH01, 2,5-dihydro-10-hydroxy-5-oxo-2,2,4-trimethyl-1H-[1]benzopyrano [3,4-f]quinoline]

From patent publication US20220280661A1, “GLUCOCORTICOID RECEPTOR RADIOLIGANDS AND METHODS FOR THEIR PREPARATION AND USE” (The Regents of the University of California, priority 2019, published 2022)
